Results taken from ChEMBL document CHEMBL1212868, “Synergistic experimental/computational studies on arylazoenamine derivatives that target the bovine viral diarrhea virus RNA-dependent RNA polymerase” (Bioorg Med Chem, 2010).
pEC50, pIC50: −log10 of the molar value.

Columns and labels:
[1] = tested on: Bovine viral diarrhea virus 1; experiment: Antiviral activity against BVDV infected in […] cells assessed as inhibition of virus-induced cytopathogenicity by MTT assay; format: functional, organism-based; conditions: Bovine viral diarrhea virus isolates and strains
[2] = Cytotoxicity against […] cells by MTT assay; format: cell-based
[3] = tested on: Bovine viral diarrhea virus 1; experiment: Antiviral activity against BVDV bearing mutant RdRp infected in […] cells assessed as inhibition of virus-induced cytopathogenicity by MTT assay; format: functional, organism-based; conditions: Bovine viral diarrhea virus isolates and strains
[4] = Selectivity index, ratio of CC50 for […] cells to EC50 for BVDV
[5] = Inhibition of BVDV RNA dependent NS5B polymerase; set-up: species or system Bovine viral diarrhea virus 1
[6] = Inhibition of hepatitis C virus RNA dependent NS5B polymerase; set-up: species or system Hepacivirus hominis

SMILES	pEC50 [1]	other results
CC(=O)Nc1ccc(-c2nc3cc([N+](=O)[O-])ccc3[nH]2)cc1	6.10	CC50 [2]: > 100 µM; pEC50 [3]: < 4.00
CC(=O)Nc1ccc(-c2nc3cc(Cl)c(Cl)cc3[nH]2)cc1	6.00	CC50 [2]: 58 µM; pEC50 [3]: < 4.00
Brc1cccc(/N=N/C2=C3CCCCN3CCC2)c1	< 5.00	–
Brc1ccc(/N=N/C2=C3CCCCN3CCC2)cc1	< 4.23	–
FC(F)(F)c1cccc(/N=N/C2=C3CCCCN3CCC2)c1	< 5.10	–
O=[N+]([O-])c1cccc(/N=N/C2=C3CCCCN3CCC2)c1	< 4.00	–
O=[N+]([O-])c1ccc(/N=N/C2=C3CCCCN3CCC2)cc1	4.07	–
Clc1ccc(/N=N/C2=C3CCCCN3CCC2)cc1Cl	< 4.52	–
FC(F)(F)c1cc(/N=N/C2=C3CCCCN3CCC2)cc(C(F)(F)F)c1	< 4.51	–
Fc1ccc(/N=N/C2=C3CCCCN3CCC2)cc1C(F)(F)F	< 4.00	–
FC(F)(F)c1cc(/N=N/C2=C3CCCCN3CCC2)ccc1Cl	< 4.46	–
FC(F)(F)c1cc(/N=N/C2=C3CCCCN3CCC2)ccc1Br	4.21	–
O=[N+]([O-])c1cc(/N=N/C2=C3CCCCN3CCC2)ccc1Cl	< 4.74	–
c1ccc2c(/N=N/C3=C4CCCCN4CCC3)cccc2c1	5.22	–
Fc1ccc(/N=N/C2=C3CCCCN3CCC2)cc1	< 4.25	–
Clc1ccccc1/N=N/C1=C2CCCCN2CCC1	< 4.00	–
Clc1cccc(/N=N/C2=C3CCCCN3CCC2)c1	< 4.70	–
Clc1ccc(/N=N/C2=C3CCCCN3CCC2)cc1	< 4.22	–
Clc1ccc(/N=N/C2=C3CCCN3CCC2)cc1	< 4.52	–
O=[N+]([O-])c1cccc(/N=N/C2=C3CCCN3CCC2)c1	< 4.17	–
Clc1ccc(/N=N/C2=C3CCCN3CCC2)cc1Cl	< 4.17	–
FC(F)(F)c1cc(/N=N/C2=C3CCCN3CCC2)ccc1Cl	< 4.68	–

SMILES	pEC50 [1]	other results
c1ccc2c(/N=N/C3=C4CCCN4CCC3)cccc2c1	5.46	–
c1ccc2c(/N=N/C3=C4CCCN4CCC3)nncc2c1	< 4.00	–
CN1CCC/C1=C\N=N\c1ccc([N+](=O)[O-])cc1	4.72	–
Clc1ccc(/N=N/C=C2\CCCN2Cc2ccccc2)cc1Cl	< 4.10	–
Nc1ccc(-c2nc3cc([N+](=O)[O-])ccc3[nH]2)cc1	5.82	CC50 [2]: 79 µM; pEC50 [3]: < 4.10
COc1ccc(/N=N/C=C2\CCCN2C)cc1	4.74	–
CN1CCC/C1=C\N=N\c1ccc(Cl)c(Cl)c1	4.80	–
CN1C=C(/N=N/c2cccc([N+](=O)[O-])c2)CCC1	6.10	CC50 [2]: > 100 µM; Ratio CC50/EC50 [4]: 125; pIC50 [5]: 4.49; pIC50 [6]: 4.52
CN1C=C(/N=N/c2ccccc2)CCC1	< 4.00	–
CN1C=C(/N=N/c2ccccc2Cl)CCC1	4.00	–
CN1CCC/C1=C\N=N\c1ccc(F)cc1	4.74	–
CN1C=C(/N=N/c2c(F)c(F)c(F)c(F)c2F)CCC1	< 4.00	–
Cc1ccc(/N=N/C2=CN(C)CCC2)cc1	< 4.00	–
CN1CCC/C1=C\N=N\c1ccc(Cl)cc1	4.68	–
CN1C=C(/N=N/c2ccc(Cl)c(Cl)c2)CCC1	5.15	–
CN1CCC/C1=C\N=N\c1cccc(Br)c1	5.05	–
CN1CCC/C1=C\N=N\c1ccc(Br)cc1	4.96	–
CN1CCC/C1=C\N=N\c1cccc(C(F)(F)F)c1	4.68	–
Clc1ccc(/N=N/C=C2\CCCN2Cc2ccccc2)cc1	< 4.74	–
Cc1ccc(/N=N/C=C2\CCCN2Cc2ccccc2)cc1	< 4.66	–
CN1C=C(/N=N/c2cccc(C(F)(F)F)c2)CCC1	4.05	–
CN1C=C(/N=N/c2cccc(Cl)c2)CCC1	4.92	–

SMILES	pEC50 [1]	other results
CN1C=C(/N=N/c2ccc(Cl)cc2)CCC1	< 4.24	–
CN1C=C(/N=N/c2cccc3ccccc23)CCC1	5.30	CC50 [2]: > 100 µM; pEC50 [3]: < 4.00; pIC50 [5]: 4.55; pIC50 [6]: 4.26
CN1CCC/C1=C\N=N\c1c(F)c(F)c(F)c(F)c1F	< 4.00	–
CN1C=C(/N=N/c2cccc(Br)c2)CCC1	4.72	–
CN1C=C(/N=N/c2ccc(Br)cc2)CCC1	4.22	–
CN1CCC/C1=C\N=N\c1ccccc1	5.00	–
CN1C=C(/N=N/c2ccc(F)c(C(F)(F)F)c2)CCC1	< 4.00	–
CN1C=C(/N=N/c2ccc(F)cc2)CCC1	< 4.32	–
CN1C=C(/N=N/c2ccc(Cl)c(C(F)(F)F)c2)CCC1	< 4.55	–
CN1C=C(/N=N/c2ccc(Cl)c([N+](=O)[O-])c2)CCC1	< 4.21	–
CN1CCC/C1=C\N=N\c1ccc(Br)c(C(F)(F)F)c1	4.34	–
CN1CCC/C1=C\N=N\c1cccc([N+](=O)[O-])c1	5.26	–
Cc1ccc(/N=N/C=C2\CCCN2C)cc1	4.70	–
CN1CCC/C1=C\N=N\c1cc(C(F)(F)F)cc(C(F)(F)F)c1	< 4.44	–
CN1C=C(/N=N/c2cc(C(F)(F)F)cc(C(F)(F)F)c2)CCC1	< 4.19	–
CN1C=C(/N=N/c2ccc([N+](=O)[O-])cc2)CCC1	4.96	–
CN1C=C(/N=N/c2ccc(Br)c(C(F)(F)F)c2)CCC1	4.40	–
FC(F)(F)c1cc(/N=N/C=C2\CCCN2Cc2ccccc2)ccc1Cl	< 4.85	–
C(/N=N/c1ccccc1)=C1/CCCN1Cc1ccccc1	< 4.13	–
CN1CCC/C1=C\N=N\c1ccc(F)c(C(F)(F)F)c1	4.00	–
C[C@@]1(O)[C@H](O)[C@@H](CO)O[C@H]1n1cnc2c(=O)[nH]c(N)nc21 [2'-B-METHYL-GUANOSINE]	5.77	–
